# Test results from patent US9796719B2, “Compounds and pharmaceutical compositions thereof for the treatment of inflammatory disorders” (GALAPAGOS NV, priority 2013, dated 2017).
# Columns and labels:
# Format in all cases: biochemical
# hENPP2 [1] = biological target: T1, hENPP2 (UniProtKB/SwissProt Sequence ref Q13822) (Homo sapiens (Human), UniProt Q13822); assay: LPC hENPP2 assay (choline release, LPC as substrate)
# Summary of the method: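 Choline released from LPC by ENPP2 is quantified after stopping with stop-developer containing 0.6 U/mL choline oxidase, 0.6 U/mL peroxidase, 1.8 mM TOOS, 1.2 mM amino-antipyrine and 20 mM EGTA. Quinoneimine dye read at 555 nm after 30 min at room temperature.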
# hENPP2 [2] = biological target: T1, hENPP2; assay: FS3 hENPP2 assay (fluorogenic substrate FS-3); settings: hENPP2, FS-3 as substrate
# Summary of the method: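 Compound dilutions (1/5 steps, top concentration as added 20 μM) were preincubated 30 min at room temperature with hENPP2 (0.4 or 0.64 μg/mL final) in pH 8.0 Tris buffer containing NaCl, KCl, MgCl2, CaCl2 and 0.1% fatty-acid-free BSA. FS-3 (0.75 μM as added) was then hydrolysed for 30 min at 30 °C, and fluorescence was read at 485/520 nm.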
# LPA 18:2 = assay: Rat whole blood (plasma) LPA assay
# Protocol: Whole blood is collected from rats or mouse by exsanguinations on sodium heparin tube, then after centrifugation at 3000 rpm for 15 min at 4° C., plasma is stored at −80° C. Compounds are diluted in DMSO in concentration dependent manner then 0.5 μL are dispensed into 96-wells plate placed in ice. Plasma is defrosted on ice then 49.5 μL of plasma are added into the well containing 0.5 μL of compound (1% DMSO final). Plates are covered with a lid in polypropylene and incubated at +37° C., 5% CO2, for 2 h under gentle shaking (except controls which are stored at −20° C.).
# At the end of the incubation, controls are defrosted in ice and transferred in the incubated plates for LC-MS/MS analysis with a non GLP-validated method. For the analysis, plasma proteins from a 10 μL incubated plates are precipitated with an excess of methanol containing the internal standard, LPA 17:0. After centrifugation, the corresponding supernatant is injected on a C18 column. Analytes are eluted out of the column under isocratic conditions. An API5500 QTRAP mass spectrometer (ABSciex™) is used for the detection of LPA 18:2. No calibration curve is prepared for LPA 18:2, however relative quantities are evaluated based on the peak area.
smiles,measurement,setting,value
"CN(c1nc(-c2ccc(F)cc2)cs1)c1c(CCC#N)nc2ccc(C3CCN(S(C)(=O)=O)CC3)nn12 [Compound 198, 3-(3-((4-(4-fluorophenyl)thiazol-2-yl)(methyl)amino)-6-(1-(methylsulfonyl)piperidin-4-yl)imidazo[1,2-b]pyridazin-2-yl)propanenitrile]",IC50,hENPP2 [1],100 to 500 nM
same,IC50,hENPP2 [2],0.01 to 25 nM
same,IC50,LPA 18:2,0.01 to 100 nM
"CCc1nc2cnc(N3CCN(CC(=O)N(C)C)CC3)cn2c1N(C)c1nc(-c2ccc(F)cc2)c(C#N)s1 [Cpd 5, 2-(4-(3-((5-cyano-4-(4-fluorophenyl)thiazol-2-yl)(methyl)amino)-2-ethylimidazo[1,2-a]pyrazin-6-yl)piperazin-1-yl)-N,N-dimethylacetamide]",IC50,hENPP2 [1],100 to 500 nM
same,IC50,hENPP2 [2],0.01 to 25 nM
same,IC50,LPA 18:2,> 1000 nM
"CCc1nc2cnc(N3CCN(CC(=O)N4CC[C@@H](O)C4)CC3)cn2c1N(C)c1nc(-c2ccc(F)cc2)c(C#N)s1 [Cpd 6, (R)-2-((2-ethyl-6-(4-(2-(3-hydroxypyrrolidin-1-yl)-2-oxoethyl)piperazin-1-yl)imidazo[1,2-a]pyrazin-3-yl)(methyl)amino)-4-(4-fluorophenyl) thiazole-5-carbonitrile]",IC50,hENPP2 [1],100 to 500 nM
same,IC50,hENPP2 [2],0.01 to 25 nM
same,IC50,LPA 18:2,100 to 500 nM
"CCc1nc2cnc(N3CCN(CC(=O)N4CC[C@H](O)C4)CC3)cn2c1N(C)c1nc(-c2ccc(F)cc2)c(C#N)s1 [Cpd 7, (S)-2-((2-ethyl-6-(4-(2-(3-hydroxypyrrolidin-1-yl)-2-oxoethyl)piperazin-1-yl)imidazo[1,2-a]pyrazin-3-yl)(methyl)amino)-4-(4-fluorophenyl) thiazole-5-carbonitrile]",IC50,hENPP2 [1],100 to 500 nM
same,IC50,hENPP2 [2],0.01 to 25 nM
same,IC50,LPA 18:2,100 to 500 nM
"CCc1nc2cnc(N3CCN(CC(=O)N4CCOCC4)CC3)cn2c1N(C)c1nc(-c2ccc(F)cc2)c(C#N)s1 [Cpd 10, 2-((2-ethyl-6-(4-(2-morpholino-2-oxoethyl)piperazin-1-yl)imidazo[l,2-a]pyrazin-3-yl)(methyl)amino)-4-(4-fluorophenyl) thiazole-5-carbonitrile]",IC50,hENPP2 [1],100 to 500 nM
same,IC50,hENPP2 [2],0.01 to 25 nM
same,IC50,LPA 18:2,> 1000 nM
"CCc1nc2cnc(N3CCN(CC(=O)N4CC(O)C4)CC3)cn2c1N(C)c1nc(-c2ccc(F)cc2)cs1 [Cpd 14, 2-(4-(2-ethyl-3-((4-(4-fluorophenyl)thiazol-2-yl)(methyl)amino)imidazo[1,2-a]pyrazin-6-yl)piperazin-1-yl)-1-(3-hydroxyazetidin-1-yl)ethanone]",IC50,hENPP2 [1],> 1000 nM
same,IC50,LPA 18:2,> 1000 nM
"CCc1nc2cnc(N3CCN(CC(=O)N4CC(O)C4)CC3)cn2c1N(C)c1nc(-c2ccc(F)cc2C#N)cs1 [Cpd 16, 2-(2-((2-ethyl-6-(4-(2-(3-hydroxyazetidin-1-yl)-2-oxoethyl)piperazin-1-yl)imidazo[1,2-a]pyrazin-3-yl)(methyl)amino)thiazol-4-yl)-5-fluorobenzonitrile]",IC50,hENPP2 [1],> 1000 nM
same,IC50,hENPP2 [2],50 to 100 nM
same,IC50,LPA 18:2,> 1000 nM
"CCc1nc2ccc(N3CCC4(CNC(=O)O4)C3)nn2c1N(C)c1nc(-c2ccc(F)cc2)cs1 (centres unmarked) [Cpd 118, 7-(2-ethyl-3-((4-(4-fluorophenyl)thiazol-2-yl)(methyl)amino)imidazo[1,2-b]pyridazin-6-yl)-1-oxa-3,7-diazaspiro[4.4] nonan-2-one]",IC50,hENPP2 [1],500 to 1000 nM
same,IC50,LPA 18:2,> 1000 nM
"CCc1nc2ccc(N3CCC(N4CCOCC4)C3)nn2c1N(C)c1nc(-c2ccc(F)cc2)c(C#N)s1 (centres unmarked) [Cpd 149, 2-((2-ethyl-6-(3-morpholino-pvrrolidin-1-yl)imidazo[1,2-b]pyridazin-3-yl)(methyl)amino)-4-(4-fluorophenyl) thiazole-5-carbonitrile]",IC50,hENPP2 [1],0.01 to 100 nM
same,IC50,LPA 18:2,0.01 to 100 nM
"CCc1nc2ccc(N3CCC(N4CCS(=O)(=O)CC4)C3)nn2c1N(C)c1nc(-c2ccc(F)cc2)cs1 (centres unmarked) [Cpd 150, {6-[3-(1,1-Dioxo-thiomorpholin-4-yl)-pyrrolidin-1-yl]-2-ethyl-imidazo[1,2-b]pyridazin-3-yl}-[4-(4-fluoro-phenyl)-thiazol-2-yl]-methyl-amine]",IC50,hENPP2 [1],> 1000 nM
same,IC50,hENPP2 [2],0.01 to 25 nM
"CCc1nc2ccc(N3CCC(N4CCCCC4)C3)nn2c1N(C)c1nc(-c2ccc(F)cc2)cs1 (centres unmarked) [Cpd 151, N-(2-ethyl-6-(3-(piperidin-1-yl)pyrrolidin-1-yl)imidazo[1,2-b]pyridazin-3-yl)-4-(4-fluorophenyl)-N-methylthiazol-2-amine]",IC50,hENPP2 [1],> 1000 nM
same,IC50,hENPP2 [2],0.01 to 25 nM
"CCc1nc2ccc(N3CCC(N4CCC(O)CC4)C3)nn2c1N(C)c1nc(-c2ccc(F)cc2)cs1 (centres unmarked) [Cpd 152, 1-(1-(2-ethyl-3-((4-(4-fluorophenyl)thiazol-2-yl)(methyl)amino)imidazo[1,2-b]pyridazin-6-yl)pyrrolidin-3-yl)piperidin-4-ol]",IC50,hENPP2 [1],500 to 1000 nM
same,IC50,hENPP2 [2],0.01 to 25 nM
"CCc1nc2ccc(N3CC(NC(=O)OC(C)(C)C)C3)nn2c1N(C)c1nc(-c2ccc(F)cc2)cs1 [Cpd 154, [1-(2-Ethyl-3-{[4-(4-fluoro-phenyl)-thiazol-2-yl]-methyl-amino}-imidazo[1,2-b]pyridazin-6-yl)-azetidin-3-yl]-carbamic acid tert-butyl ester]",IC50,hENPP2 [1],> 1000 nM
same,IC50,hENPP2 [2],0.01 to 25 nM
"CCc1nc2ccc(N3CCC(O)C3)nn2c1N(C)c1nc(-c2ccc(F)cc2)c(C#N)s1 (centres unmarked) [Cpd 171, 2-((2-ethyl-6-(3-hydroxypyrrolidin-1-yl)imidazo[1,2-b]pyridazin-3-yl)(methyl)amino)-4-(4-fluorophenyl) thiazole-5-carbonitrile]",IC50,hENPP2 [1],100 to 500 nM
same,IC50,hENPP2 [2],0.01 to 25 nM
"CCc1nc2ccc(C3=CCN(S(C)(=O)=O)CC3)nn2c1N(C)c1nc(-c2ccc(F)cc2)cs1 [Cpd 194, N-(2-ethyl-6-(1-(methylsulfonyl)-1,2,3,6-tetrahydropyridin-4-yl)imidazo[1,2-b]pyridazin-3-yl)-4-(4-fluorophenyl)-N-methylthiazol-2-amine]",IC50,hENPP2 [1],> 1000 nM
same,IC50,hENPP2 [2],0.01 to 25 nM
"CCc1nc2ccc(C3CCN(CC(=O)N(C)C)CC3)nn2c1N(C)c1nc(-c2ccc(F)cc2)cs1 [Cpd 202, 2-(4-(2-ethyl-3-((4-(4-fluorophenyl)thiazol-2-yl)(methyl)amino)imidazo[1,2-b]pyridazin-6-yl)piperidin-1-yl)-N,N-dimethylacetamide]",IC50,hENPP2 [1],500 to 1000 nM
same,IC50,hENPP2 [2],0.01 to 25 nM
"CCc1nc2ccc(C3CCN(S(C)(=O)=O)CC3)nn2c1N(C)c1nc(-c2ccc(F)cc2C#N)cs1 [Cpd 205, 2-(2-((2-ethyl-6-(1-(methylsulfonyl)piperidin-4-yl)imidazo[1,2-b]pyridazin-3-yl)(methyl)amino)thiazol-4-yl)-5-fluorobenzonitrile]",IC50,hENPP2 [1],100 to 500 nM
same,IC50,LPA 18:2,100 to 500 nM
"CCc1nc2ccc(C3CCN(S(C)(=O)=O)CC3)nn2c1N(C)c1nc(-c2ccc(F)cc2C#N)c(CO)s1 [Cpd 206, 2-(2-((2-ethyl-6-(1-(methylsulfonyl)piperidin-4-yl)imidazo[1,2-b]pyridazin-3-yl)(methyl)amino)-5-(hydroxymethyl)thiazol-4-yl)-5-fluorobenzonitrile]",IC50,hENPP2 [1],500 to 1000 nM
same,IC50,LPA 18:2,100 to 500 nM
"CCc1nc2ccc(C3CCN(CC(=O)N4CC(O)C4)CC3)nn2c1N(C)c1nc(-c2ccc(F)cc2)c(C#N)s1 [Cpd 212, 2-((2-ethyl-6-(1-(2-(3-hydroxyazetidin-1-yl)-2-oxoethyl)piperidin-4-yl)imidazo[1,2-b]pyridazin-3-yl)(methyl)amino)-4-(4-fluorophenyl) thiazole-5-carbonitrile]",IC50,hENPP2 [1],0.01 to 100 nM
same,IC50,hENPP2 [2],0.01 to 25 nM
"CCc1nc2ccc(C3CCN(CC(=O)N4CC(O)C4)CC3)nn2c1N(C)c1cccc(-c2ccc(F)cc2)n1 [Cpd 214, 2-(4-(2-ethyl-3-((6-(4-fluorophenyl)pyridin-2-yl)(methyl)amino)imidazo[1,2-b]pyridazin-6-yl)piperidin-1-yl)-1-(3-hydroxyazetidin-1-yl)ethanone]",IC50,hENPP2 [1],500 to 1000 nM
same,IC50,hENPP2 [2],0.01 to 25 nM
"CCc1nc2ccc(C3CCN(CC(=O)N4CC(O)C4)CC3)nn2c1N(C)c1nccc(-c2ccc(F)cc2)n1 [Cpd 215, 2-(4-(2-ethyl-3-((4-(4-fluorophenyl)pyrimidin-2-yl)(methyl)amino)imidazo[1,2-b]pyridazin-6-yl)piperidin-1-yl)-1-(3-hydroxyazetidin-1-yl)ethanone]",IC50,hENPP2 [1],100 to 500 nM
same,IC50,hENPP2 [2],0.01 to 25 nM
"CCc1nc2ccc(C3CCN(CC(=O)N4CC(O)C4)CC3)nn2c1N(C)c1nc(-c2ccc(F)cc2)ccc1C#N [Cpd 217, 2-((2-ethyl-6-(1-(2-(3-hydroxyazetidin-1-yl)-2-oxoethyl)piperidin-4-yl)imidazo[1,2-b]pyridazin-3-yl)(methyl)amino)-6-(4-fluorophenyl) nicotinonitrile]",IC50,hENPP2 [1],> 1000 nM
same,IC50,hENPP2 [2],50 to 100 nM
